Source: patent US12611432B2 (priority 2017, dated 2026)

Tests used:
[1] = test system: PTEN KO orthotopic tumors; test: FTY720 blockade of T cell recruitment in PTEN KO tumor-bearing mice; format: in vivo
Experimental: Survival endpoint was defined by the appearance of hemorrhagic abdominal ascites and/or decreased grooming, ambulation, or piloerection. Volume of all tumor experiments was calculated using caliper measurements at π/6×L×W×H, where L is length of longest axis of the tumor, and W and H are the perpendicular width and height, respectively.
For all in vivo experiments, CP1 was administered intra-urethrally on day 8 post-tumor injection. […]
The Ability of CP1 to Potentiate PD-1 Blockade is Partially Dependent on Increased TIL Recruitment To determine if CP1's ability to recruit lymphocytes into the tumor is necessary for its proven synergy with PD-1 blockade, fingolimod (FTY720), a sphingosine-1 phosphate mimetic that blocks egress of T cells from the lymph nodes into peripheral tissues, was administered. PTEN KO orthotopic tumor-bearing mice were treated with CP1 and anti-PD-1, with the addition of FTY720 administration beginning immediately before CP1 administration, to specifically block CP1-induced T cell infiltration into the tumor without inhibiting the quantity or function of the baseline TILs present in these tumors.

[2] = test system: castration-resistant prostate cancer (CRPC); details: monotherapy, patients with CRPC; cited from earlier work
Myc-CaP cells = format: cell-based, murine; details: 1 μM mitoxantrone, live or heat killed CP1 MOI 10, 24 or 72 hours
Experimental: (a) LDH level, as a measure of cell death, from CP1 and Myc-CaP co-culture, performed in triplicates. (b-i) Myc-CaP cell were co-cultured with Mx, CP1(MOI 1), or MG1655 (MOI 1) (b, d, g) in normal media or (c, e, f, h, i) with gentamicin (+ G) added after 2 hours. (b, c) ICD was measured via HMGB1 (ELISA, 72 hours), ATP (luminescence assay, 72 hours), and calreticulin (flow cytometry, 24 or 72 hours), performed in biological triplicates, technical duplicates. (d-f) Caspase 3/7 activity (luminescence assay) was measured at (d, e) 6 hours or (f) 24 hours, (d) normalized to cell count (MTT assay), performed in sextuplicates. (g, h) Early stage apoptosis (Annexin V^+PI^-) and late stage apoptosis (Annexin V+PI+) were determined by flow cytometry after 24 hours, performed in triplicates. (i) Western blot analysis of phosphorylated and total MLKL, RIP1, RIP3, full length and cleaved PARP, and β-actin after 24 hours, performed in triplicates.
For indicated in vitro assays, CP1 was heat killed at 70° C. for 45 minutes. […] Additionally, supernatant was assessed for lactate dehydrogenase (LDH) levels as a measure of cell death (CytoTox 96 Non-Radioactive Cytotoxicity Assay, Promega). […] Cells counts were taken at the times of supernatant collection, which were frozen at −80° C. until use for quantifying secreted ATP (Bioluminescent Assay Kit, Sigma) and HMGB1 (ELISA, Tecan Trading).

Compound | overall survival (OS) [2] | further results
CCCCCCCCc1ccc(CCC(N)(CO)CO)cc1 [FTY720, Fingolimod] |  | tumor volume, mean [1]: 1394 mm^3
nivolumab | no improvement in overall survival (OS) | 
O=C1c2c(O)ccc(O)c2C(=O)c2c(NCCNCCO)ccc(NCCNCCO)c21 [mitoxantrone] |  | ICD markers: secreted HMGB1, secreted ATP, cell surface calreticulin (Myc-CaP cells): elevated
ipilimumab | no improvement in overall survival (OS) | 
